# Data taken from patent publication US20220088010A1, “Co-Administration of inhibitors to produce insulin producing gut cells” (The Trustees of Columbia University in the City of New York, priority 2019, published 2022).
# Entries after “also recorded” stand apart in the source; their conditions may differ.
# Tests used:
# [1] = test system: intestine enteroendocrine cells; assay: Initial DBZ i.p. followed by FBT9 via enterojejunal catheter (24 hrs after DBZ); intestine analyzed for enteroendocrine cell content by immunohistochemistry; format: in vivo, mouse; settings: FBT9 from 24 hrs later
# Experimental: The experiment consisted of performing surgery on 8-week-old mice to implant an enterojejujnal catheter to deliver drugs locally to the intestinal mucosa. After a 1-week recovery period, mice were treated with a single i.p. injection of DBZ or vehicle control. Administration of Foxo1 inhibitor compound 9 (Langlet et al. 2017 Cell, see below)
# (§1) was initiated either on the same day or on the following day, t.i.d. by injection via enterojejunal catheter for 3 days. At the end of the experiment, mice were sacrificed and the intestine analyzed for enteroendocrine cell content using immunohistochemistry. […] The treatment regime of FIG. 10 involved administering the first dose of FBT9 with DBZ followed by subsequent doses of FBT9.
# [2] = test system: intestine enteroendocrine cells of Foxo1 heterozygous knockouts; assay: Co-treatment: DBZ with first dose of FBT9, then FBT9 3 days TID; intestine immunohistochemistry; format: in vivo, mouse; settings: DBZ alone or FBT9 x3 days TID alone (FIG. 9)
# Experimental: FIG. 8 provides graphs showing the effect of co-treatment of FBT9 and DBZ (DBZ administered in conjunction with first dose of FBT9 followed by sequential administration of FBT9 3 days TID) on body weight and plasma glucose in Foxo1 heterozygous knockouts.
# The experiment consisted of performing surgery on 8-week-old mice to implant an enterojejujnal catheter to deliver drugs locally to the intestinal mucosa. After a 1-week recovery period, mice were treated with a single i.p. injection of DBZ or vehicle control.
# as §1
# Gut Ins+ cells = assay: Insulin secretion by Gut Ins+ cells, block by diazoxide
# [3] = test system: gut cells of Foxo1 knockout mice; assay: Oral gavage of ROCK inhibitor Y-27632 in Foxo1 knockout mice; intestine immunohistochemistry; format: in vivo, mouse; settings: for number of insulin-positive cells in Foxo1 knockout mice not treated with ROCKi relative to those treated: Y-27632 oral gavage q.d. 2 days, FIG. 17, dihydrochloride
# From the text: The experiment consisted of treating 8-week-old mice (Foxo1 knockout mice) by oral gavage dosing of Y-27632, q.d., for 2 days. On day 3, mice were sacrificed and the intestine analyzed for enteroendocrine cell content using immunohistochemistry. The arrows in FIGS. 15 and 16 represent c-peptide and insulin-positive cells, which resemble true beta-like cells.
# [4] = test system: Mouse gut organoid from a wild type mouse; assay: FBT10 treatment of mouse gut organoid, immunohistochemistry; format: cell-based; settings: after 72 hrs of treatment; FIG. 18
# Experimental: Mouse gut organoid from a wild type mouse was treated with FBT10 (Compound 10, Langlet et al. 2017 Cell, see below).
# [5] = test system: intestine enteroendocrine cells; assay: Co-administration of FBT10 (enterojejunal catheter) and DBZ (i.p.) in mice; intestine immunohistochemistry; format: in vivo, mouse; settings: FBT10 t.i.d. 3 days with single i.p. DBZ; FIG. 19
# Experimental: The protocol used above in Example 1 was followed for testing a combination of FBT10 and DBZ. The experiment consisted of performing surgery on 8-week-old mice to implant an enterojejujnal catheter to deliver drugs locally to the intestinal mucosa. After a 1-week recovery period, mice were treated with a single i.p. injection of DBZ or vehicle control. Administration of Foxo1 inhibitor compound 10 (FBT10) was initiated either on the same day or on the following day, t.i.d. by injection via enterojejunal catheter for 3 days. At the end of the experiment, mice were sacrificed and the intestine analyzed for enteroendocrine cell content using immunohistochemistry. Regarding the graphs indicating effects on Body weight and blood glucose, each line represents an individual animal. […] No insulin-positive cells were found in vehicle treated duodenum or colon.
# gut cells of NOD mice = assay: FBT10 in NOD mice over 96 hr; gut micrographs; format: in vivo, mouse; settings: 96 hr period, FIG. 20
# Experimental: NOD mice (mouse model whose pancreatic beta cells are destroyed by immunological response) were treated with FBT10 or vehicle over a 96 hr period. […] Insulin-positive cells were not detected in the colon. FIG. 20 also provides graphs showing effects on body weight and blood glucose (each graph line represents an individual animal)
smiles,measurement,setting,value
C[C@H](NC(=O)Cc1cc(F)cc(F)c1)C(=O)N[C@@H]1C(=O)N(C)c2ccccc2-c2ccccc21 [DBZ],number of Serotonin (5HT)-positive cells,[1],increased
same,number of Somatostatin-positive cells,[1],increased
same,number of Glp1-positive cells,[1]; duodenum and jejunum,increased
same,ins+ cells after individual treatment,[2],neither which produced ins+ cells
"COc1ccc(C(=O)Nc2cc(-c3nc4ccccc4[nH]3)n[nH]2)cc1Cl [FBT9, N-(3-(1H-benzo[d]imidazole-2-yl)-1H-pyrazol-5-yl)-3-chloro-4-methoxybenzamide]",ins+ cells after individual treatment,[2],neither which produced ins+ cells
CC1=NS(=O)(=O)c2cc(Cl)ccc2N1 [diazoxide],insulin secretion / release by Gut Ins+ cells,Gut Ins+ cells,can be blocked; also recorded: can be shut off
"C[C@@H](N)[C@H]1CC[C@H](C(=O)Nc2ccncc2)CC1.Cl.Cl [Y27632, (+)-(R)-trans-4-(1-aminoethyl)-N-(4-pyridyl)cyclohexanecarboxamide dihydrochloride]",Epcam counterstain of insulin-positive cells,"[3]; Foxo1 knockout mice treated with ROCKi, FIG. 16",insulin-positive cells are epithelial
same,number of insulin-positive cells in Foxo1 knockout mice not treated with ROCKi relative to those treated,[3]; listed as ROCK inhibitor,decreases dramatically
same,number of insulin-positive cells in Foxo1 knockout mice not treated with ROCKi relative to those treated,[3]; listed as ROCKi,significantly lower
same,C-peptide staining of Ins+ cells in the gut,"[3]; homozygous Foxo1 knockout mice, FIG. 15",positive for C-peptide
"CN1CCN(c2ccc(C(=O)Nc3cc(-c4nc5ccccc5[nH]4)n[nH]3)cc2)CC1 [FBT10, N-(3-(1H-benzo[d]imidazol-2-yl)-1H-pyrazol-5-yl)-4-(4-methylpiperazin-1-yl)benzamide]",insulin and serotonin (5HT) positive cells,[4],some of the cells turned into insulin and serotonin (5HT) positive cells
same,insulin-positive cells in duodenum and colon,[5],present in the duodenum and colon
same,insulin-positive cells in the colon,gut cells of NOD mice,not detected
same,insulin-positive cells in the jejunum,gut cells of NOD mice,generated insulin-positive cells
